In patent US20020012979A1, “VITAMIN C PRODUCTION IN MICROORGANISMS AND PLANTS” (priority 1998, published 2002):

Tested on: strain NA45-3 (ATCC 209681)
Assay: Effect of magnesium on AA production from substrates by strain NA45-3
Format: cell-based, Prototheca moriformis
Settings: 24 hours; for conversion to AA, effect of magnesium in the resuspension buffer: NA45-3 grown Mg-limited, substrate 20 g/L

SMILES	AA accumulation by cells grown under magnesium-sufficient conditions (NA45-3, substrate 20 g/L, regardless of magnesium in resuspension broth)	conversion to AA, effect of magnesium in the resuspension buffer
O=C1O[C@H]([C@@H](O)CO)[C@@H](O)[C@@H]1O [L-galactono-γ-lactone]	enhanced	unaffected
O=C[C@@H](O)[C@@H](O)[C@H](O)[C@H](O)CO [D-mannose]		unaffected
